Reference: ChEMBL document CHEMBL1201862, “PubChem BioAssay data set” (2004)
Calls of active or inactive are those of the source.

What was measured:
Leucine aminopeptidase = target: T1, Leucine aminopeptidase (Plasmodium falciparum 3D7, UniProt Q8IL11); assay: P. falciparum M17LAP inhibitors, primary screen, biochemical, fluorogenic H-Leu-NHMec substrate, 1536-well (AID 1619); format: functional
T1 sequence (Q8IL11 whole entry): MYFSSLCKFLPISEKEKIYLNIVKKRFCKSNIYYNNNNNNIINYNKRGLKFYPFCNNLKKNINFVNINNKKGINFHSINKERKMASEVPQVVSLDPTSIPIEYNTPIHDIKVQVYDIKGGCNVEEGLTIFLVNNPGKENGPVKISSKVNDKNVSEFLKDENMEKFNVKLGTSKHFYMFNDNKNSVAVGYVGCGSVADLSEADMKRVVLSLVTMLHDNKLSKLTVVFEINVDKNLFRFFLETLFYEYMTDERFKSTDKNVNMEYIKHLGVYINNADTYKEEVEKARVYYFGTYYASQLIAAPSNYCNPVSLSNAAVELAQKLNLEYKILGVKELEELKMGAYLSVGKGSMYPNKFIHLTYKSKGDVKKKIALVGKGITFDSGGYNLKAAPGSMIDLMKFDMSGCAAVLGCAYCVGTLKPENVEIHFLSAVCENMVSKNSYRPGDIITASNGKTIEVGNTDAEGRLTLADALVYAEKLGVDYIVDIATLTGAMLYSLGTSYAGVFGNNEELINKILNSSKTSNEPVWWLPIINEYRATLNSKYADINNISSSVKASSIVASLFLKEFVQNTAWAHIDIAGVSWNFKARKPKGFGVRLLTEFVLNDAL

Aminopeptidase N = target: T2, Aminopeptidase N (Plasmodium falciparum FcB1/Columbia, UniProt O96935); assay: P. falciparum M1AAP inhibitors, biochemical, fluorogenic H-Leu-NHMec substrate, 1536-well (AID 1445); parameters: species or system Plasmodium falciparum 3D7, 3D7
T2 sequence (O96935 whole entry): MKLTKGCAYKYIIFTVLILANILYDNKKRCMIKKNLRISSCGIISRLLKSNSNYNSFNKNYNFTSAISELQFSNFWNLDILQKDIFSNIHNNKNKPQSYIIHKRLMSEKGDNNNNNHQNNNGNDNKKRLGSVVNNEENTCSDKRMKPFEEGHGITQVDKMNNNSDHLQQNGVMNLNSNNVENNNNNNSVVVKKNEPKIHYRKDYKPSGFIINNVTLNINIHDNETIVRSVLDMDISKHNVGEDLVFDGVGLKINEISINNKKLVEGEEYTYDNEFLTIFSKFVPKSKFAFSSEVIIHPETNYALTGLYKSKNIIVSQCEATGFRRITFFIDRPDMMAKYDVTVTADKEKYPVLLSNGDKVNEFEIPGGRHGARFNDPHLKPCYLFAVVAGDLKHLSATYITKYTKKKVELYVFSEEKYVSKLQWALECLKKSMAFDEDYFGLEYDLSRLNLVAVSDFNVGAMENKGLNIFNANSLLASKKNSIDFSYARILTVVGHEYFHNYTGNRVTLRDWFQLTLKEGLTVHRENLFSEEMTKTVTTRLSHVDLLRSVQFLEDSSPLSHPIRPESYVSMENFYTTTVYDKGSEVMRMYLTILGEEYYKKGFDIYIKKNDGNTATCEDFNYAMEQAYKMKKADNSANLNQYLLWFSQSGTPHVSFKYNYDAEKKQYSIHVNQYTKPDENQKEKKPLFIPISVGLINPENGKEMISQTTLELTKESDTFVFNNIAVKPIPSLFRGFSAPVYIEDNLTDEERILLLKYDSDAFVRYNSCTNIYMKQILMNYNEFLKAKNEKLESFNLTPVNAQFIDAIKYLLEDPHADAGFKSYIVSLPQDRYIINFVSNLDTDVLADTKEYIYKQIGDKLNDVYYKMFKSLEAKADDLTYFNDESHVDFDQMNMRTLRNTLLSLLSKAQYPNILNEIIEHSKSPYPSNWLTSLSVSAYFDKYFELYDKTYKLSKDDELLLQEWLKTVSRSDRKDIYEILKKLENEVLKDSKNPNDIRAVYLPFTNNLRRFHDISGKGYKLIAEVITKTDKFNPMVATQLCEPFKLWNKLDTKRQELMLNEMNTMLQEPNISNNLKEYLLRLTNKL

[1] = target: T3, Kappa-type opioid receptor (Homo sapiens, UniProt P41145); format: functional
Beta-galactosidase [2] = target: T4, Beta-galactosidase (Escherichia coli, UniProt Q8VNN2); format: functional
[3] = target: T3, Kappa-type opioid receptor; format: functional; remark: listed apart in the source
[4] = target: T5, Voltage-gated N-type calcium channel alpha-1B subunit/Amyloid beta A4 precursor protein-binding family A member 1 (Homo sapiens, UniProt Q00975+Q02410); format: protein assay
[5] = target: T5, Voltage-gated N-type calcium channel alpha-1B subunit/Amyloid beta A4 precursor protein-binding family A member 1; format: protein assay; remark: listed apart in the source
Beta-galactosidase [6] = target: T4, Beta-galactosidase; assay: beta-galactosidase enzyme inhibitors and activators, dose response, artefact control for CCR6 antagonist project, biochemical, E. coli enzyme, set 3 (AID 504712); format: functional
[7] = Shn3 3'UTR reporter inhibitors, dose response, cell-based, Clone20 osteoblasts, firefly luciferase, cherry-picked (AID 624132); format: functional;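 further: firefly luciferase luminescence from reporter carrying the Shn3 3'UTR in osteoblasts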
[8] = HepG2 cell cytotoxicity, dose response, cytotoxicity control for Shn3 inhibitor project, CellTiter-Glo, cherry-picked (AID 624134); format: functional, cell-based
[9] = control 3'UTR Renilla luciferase suppression, dose response, counter-screen for Shn3 inhibitor project, cell-based, Clone20-Shn3RL, cherry-picked (AID 624133); format: functional
[10] = target: Potassium voltage-gated channel subfamily KQT member 2 (Rattus norvegicus, UniProt O88943, W236L); assay: KCNQ2 channel potentiators, dose response, mechanism study for KCNQ2 potentiator project, cell-based, automated electrophysiology (AID 2603); format: functional
Cytochrome P450 2D6 = Cytochrome P450 2D6 (Homo sapiens, UniProt P10635);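 further: CYP2D6 member of a cytochrome P450 panel assay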
[11] = target: Intestinal-type alkaline phosphatase (Homo sapiens, UniProt P09923); assay: Dose Response confirmation of uHTS hits from a small molecule inhibitors of human intestinal alkaline phosphatase via a luminescent assay. [Related pubchem assays (depositor defined):AID2544, AID2574]; format: functional
[12] = cytotoxicity in NIH/3T3 mouse fibroblasts, dose response, cytotoxicity control, cell-based, mouse embryonic fibroblasts, dry powder, set 2 (AID 493247); format: functional; settings: Fibroblast
Trypanosoma cruzi = assay: growth inhibition of intracellular Trypanosoma cruzi, dose response, cell-based, plate reader, dry powder, set 3 (AID 493197); format: functional
BJ [13] = assay: cytotoxicity toward BJ-TERT fibroblasts, dose response, cell-based, RAS-independent, luminescence (AID 1933); format: functional; settings: Homo sapiens
BJ [14] = assay: cells; format: functional, cell-based; settings: Homo sapiens
BJ [15] = assay: cytotoxicity toward BJ-TERT-LT-ST fibroblasts, dose response, cell-based, RAS-independent, luminescence (AID 1935); format: functional; settings: Homo sapiens;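 further: BJ fibroblasts immortalized with TERT plus LT and ST oncogenes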
[16] = cytotoxicity toward DRD oncogenic fibroblasts, dose response, cell-based, non-viral oncogenic, luminescence (AID 1934); format: functional; settings: Homo sapiens
Nonstructural protein 1 = Nonstructural protein 1 (Influenza A virus, UniProt Q194T2); format: functional, Influenza A virus (A/California/07/2009(H1N1))
[17] = Intein inhibitors as potential Tuberculosis drugs, a cytotoxicity screen. [Related pubchem assays (depositor defined):AID2221, AID2223, AID434968, AID435010, AID449749, AID449750, AID489010]; format: functional
[18] = target: T6, Replicative DNA helicase DnaB (Mycobacterium tuberculosis, UniProt P9WMR3); assay: DnaB intein splicing inhibitors, dose response, biochemical, cell-free fluorescence (AID 449749); format: functional
T6 sequence (P9WMR3 whole entry): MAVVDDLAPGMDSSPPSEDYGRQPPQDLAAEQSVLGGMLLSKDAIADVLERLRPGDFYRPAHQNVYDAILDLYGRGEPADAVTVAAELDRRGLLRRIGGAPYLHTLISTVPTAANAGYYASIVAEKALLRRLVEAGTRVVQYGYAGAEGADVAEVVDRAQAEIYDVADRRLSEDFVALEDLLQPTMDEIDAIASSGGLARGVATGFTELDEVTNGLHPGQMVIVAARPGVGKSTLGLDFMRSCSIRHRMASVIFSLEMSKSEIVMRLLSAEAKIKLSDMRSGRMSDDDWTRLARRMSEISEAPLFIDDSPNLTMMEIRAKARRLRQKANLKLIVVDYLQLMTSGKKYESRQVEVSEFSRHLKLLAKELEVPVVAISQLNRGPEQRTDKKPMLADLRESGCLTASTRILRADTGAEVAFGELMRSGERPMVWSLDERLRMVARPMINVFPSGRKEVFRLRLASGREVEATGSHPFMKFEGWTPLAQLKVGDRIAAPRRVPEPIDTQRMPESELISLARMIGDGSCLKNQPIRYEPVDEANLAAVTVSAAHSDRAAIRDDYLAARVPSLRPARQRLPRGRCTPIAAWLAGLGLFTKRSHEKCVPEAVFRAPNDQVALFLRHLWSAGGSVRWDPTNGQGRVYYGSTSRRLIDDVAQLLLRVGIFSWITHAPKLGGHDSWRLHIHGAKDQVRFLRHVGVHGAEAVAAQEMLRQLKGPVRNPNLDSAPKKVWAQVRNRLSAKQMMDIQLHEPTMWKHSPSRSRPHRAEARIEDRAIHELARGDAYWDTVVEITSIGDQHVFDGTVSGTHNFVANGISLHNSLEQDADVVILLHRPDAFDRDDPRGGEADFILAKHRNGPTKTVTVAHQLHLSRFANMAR

BJ [19] = assay: cytotoxicity toward Ras-transformed BJeLR fibroblasts, dose response, cell-based, alamar blue fluorescence, cherrypicked samples (AID 2631); format: functional; settings: Homo sapiens;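 further: confirmatory dose-response assay in RAS-dependent BJ fibroblasts engineered with TERT, LT and ST, with cytotoxicity read by fluorescence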
Protein RecA = target: T7, Protein RecA (Mycobacterium tuberculosis, UniProt P9WHJ3); assay: Fluorescence Cell-Free Homogeneous Dose Retest to Identify Inhibitors of RecA-Intein Splicing Activity. [Related pubchem assays (depositor defined):AID2097, AID2223, AID489010, AID492950]; format: functional
T7 sequence (P9WHJ3 whole entry): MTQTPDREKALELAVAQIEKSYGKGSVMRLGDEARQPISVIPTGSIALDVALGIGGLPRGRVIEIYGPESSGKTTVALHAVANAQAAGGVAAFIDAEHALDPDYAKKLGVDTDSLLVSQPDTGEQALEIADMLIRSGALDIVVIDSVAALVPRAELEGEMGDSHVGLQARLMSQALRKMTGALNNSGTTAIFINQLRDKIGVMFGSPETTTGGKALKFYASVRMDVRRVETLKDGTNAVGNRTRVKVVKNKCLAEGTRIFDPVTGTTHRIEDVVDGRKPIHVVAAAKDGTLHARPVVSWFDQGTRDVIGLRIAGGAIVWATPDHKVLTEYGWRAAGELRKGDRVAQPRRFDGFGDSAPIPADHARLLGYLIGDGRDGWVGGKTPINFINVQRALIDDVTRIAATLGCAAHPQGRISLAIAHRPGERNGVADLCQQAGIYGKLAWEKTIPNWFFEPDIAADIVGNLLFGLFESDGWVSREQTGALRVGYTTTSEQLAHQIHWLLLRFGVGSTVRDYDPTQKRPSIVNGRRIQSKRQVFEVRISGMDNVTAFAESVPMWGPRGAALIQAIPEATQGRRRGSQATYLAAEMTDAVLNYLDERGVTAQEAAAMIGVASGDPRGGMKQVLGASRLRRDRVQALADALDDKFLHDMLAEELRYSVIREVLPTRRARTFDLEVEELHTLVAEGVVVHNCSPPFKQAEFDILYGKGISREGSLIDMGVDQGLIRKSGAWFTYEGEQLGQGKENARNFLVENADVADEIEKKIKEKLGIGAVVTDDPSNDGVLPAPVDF

INS1 = assay: beta cell apoptosis inhibitors, cytokine rescue, dose response, luminescence, retest (AID 449756); format: functional, cell-based; settings: Rattus norvegicus;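 further: cell death triggered by IL-1 beta plus TNF-alpha plus IFN-gamma mixture; protective hits raise ATP signal compared with cytokine alone wells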
[20] = inhibitors of HIV Env-driven cell fusion, dose response, cherry-pick (AID 652057); format: functional, cell-based
[21] = CEM21 lymphoblast cell cytotoxicity, dose response, cytotoxicity control for viral fusion inhibitor project, CellTiter-Glo luminescence, cherry-picked (AID 652042); format: functional, cell-based;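 further: potency for signal decrease meaning cytotoxicity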
[22] = ZM109 Env clade C HIV-1 fusion inhibitors, dose response, HeLa effector, CEM target cells, luciferase, cherry-pick (AID 652058); format: functional, cell-based
[23] = off-target signal loss in HeLa-CEM21 co-culture – HeLa F-luc CTL cells, cherry-picked, counter-screen for HIV-1 Env fusion inhibitor project, dose response (AID 652040); format: functional, cell-based;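 further: potency for signal decrease marking cytotoxic or nonspecific inhibition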
[24] = inhibitors of clade B AD8 Env fusion, dose response, cell-based, cherry-pick (AID 652062); format: functional;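 further: luciferase signal from cell-cell fusion driven by HIV-1 clade B AD8 Env; potency is for inhibitors of fusion seen as a drop in luminescence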
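Wherever CC50 is given: cells exposed to compound for 72 hours before luminescence readout.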

T4 sequence (Q8VNN2 whole entry): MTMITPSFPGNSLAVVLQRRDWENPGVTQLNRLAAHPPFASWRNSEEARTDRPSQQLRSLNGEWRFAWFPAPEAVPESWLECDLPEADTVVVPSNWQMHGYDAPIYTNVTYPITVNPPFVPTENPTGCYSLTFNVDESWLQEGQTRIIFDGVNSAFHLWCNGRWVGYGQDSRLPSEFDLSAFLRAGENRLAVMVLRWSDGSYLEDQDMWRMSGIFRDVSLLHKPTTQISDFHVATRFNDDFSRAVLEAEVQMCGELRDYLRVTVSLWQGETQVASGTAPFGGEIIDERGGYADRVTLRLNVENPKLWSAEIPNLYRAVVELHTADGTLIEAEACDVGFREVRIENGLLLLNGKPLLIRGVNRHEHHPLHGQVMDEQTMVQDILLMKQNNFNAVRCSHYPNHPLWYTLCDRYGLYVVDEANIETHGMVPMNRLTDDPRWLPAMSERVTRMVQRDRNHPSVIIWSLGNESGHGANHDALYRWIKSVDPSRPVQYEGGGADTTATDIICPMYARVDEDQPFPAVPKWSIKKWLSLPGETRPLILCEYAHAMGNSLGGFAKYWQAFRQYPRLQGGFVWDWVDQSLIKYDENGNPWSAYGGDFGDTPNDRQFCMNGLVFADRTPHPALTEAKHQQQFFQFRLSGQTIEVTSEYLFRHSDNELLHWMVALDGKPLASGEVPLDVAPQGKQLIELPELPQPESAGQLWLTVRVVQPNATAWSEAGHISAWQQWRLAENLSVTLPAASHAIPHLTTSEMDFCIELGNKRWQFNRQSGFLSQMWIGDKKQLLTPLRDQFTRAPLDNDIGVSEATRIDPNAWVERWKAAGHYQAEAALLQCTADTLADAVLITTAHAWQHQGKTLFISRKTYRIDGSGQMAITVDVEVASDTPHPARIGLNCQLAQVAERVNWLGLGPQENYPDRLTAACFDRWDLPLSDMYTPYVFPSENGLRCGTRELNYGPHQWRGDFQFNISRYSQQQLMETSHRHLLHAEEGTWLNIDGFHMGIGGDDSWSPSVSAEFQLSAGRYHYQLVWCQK
T3 sequence (P41145 whole entry): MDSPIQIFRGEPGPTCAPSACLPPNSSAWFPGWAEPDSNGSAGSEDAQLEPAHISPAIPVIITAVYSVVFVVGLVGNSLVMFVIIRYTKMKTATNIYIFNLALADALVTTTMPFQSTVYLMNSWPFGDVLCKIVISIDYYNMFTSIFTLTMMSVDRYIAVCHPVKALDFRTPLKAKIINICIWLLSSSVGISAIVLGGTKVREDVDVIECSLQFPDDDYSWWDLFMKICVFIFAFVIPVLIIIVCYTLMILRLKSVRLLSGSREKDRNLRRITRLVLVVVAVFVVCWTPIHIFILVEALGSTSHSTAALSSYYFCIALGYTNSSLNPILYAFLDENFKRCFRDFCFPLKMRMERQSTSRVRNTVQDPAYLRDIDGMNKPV
T5 sequence (Q00975 whole entry): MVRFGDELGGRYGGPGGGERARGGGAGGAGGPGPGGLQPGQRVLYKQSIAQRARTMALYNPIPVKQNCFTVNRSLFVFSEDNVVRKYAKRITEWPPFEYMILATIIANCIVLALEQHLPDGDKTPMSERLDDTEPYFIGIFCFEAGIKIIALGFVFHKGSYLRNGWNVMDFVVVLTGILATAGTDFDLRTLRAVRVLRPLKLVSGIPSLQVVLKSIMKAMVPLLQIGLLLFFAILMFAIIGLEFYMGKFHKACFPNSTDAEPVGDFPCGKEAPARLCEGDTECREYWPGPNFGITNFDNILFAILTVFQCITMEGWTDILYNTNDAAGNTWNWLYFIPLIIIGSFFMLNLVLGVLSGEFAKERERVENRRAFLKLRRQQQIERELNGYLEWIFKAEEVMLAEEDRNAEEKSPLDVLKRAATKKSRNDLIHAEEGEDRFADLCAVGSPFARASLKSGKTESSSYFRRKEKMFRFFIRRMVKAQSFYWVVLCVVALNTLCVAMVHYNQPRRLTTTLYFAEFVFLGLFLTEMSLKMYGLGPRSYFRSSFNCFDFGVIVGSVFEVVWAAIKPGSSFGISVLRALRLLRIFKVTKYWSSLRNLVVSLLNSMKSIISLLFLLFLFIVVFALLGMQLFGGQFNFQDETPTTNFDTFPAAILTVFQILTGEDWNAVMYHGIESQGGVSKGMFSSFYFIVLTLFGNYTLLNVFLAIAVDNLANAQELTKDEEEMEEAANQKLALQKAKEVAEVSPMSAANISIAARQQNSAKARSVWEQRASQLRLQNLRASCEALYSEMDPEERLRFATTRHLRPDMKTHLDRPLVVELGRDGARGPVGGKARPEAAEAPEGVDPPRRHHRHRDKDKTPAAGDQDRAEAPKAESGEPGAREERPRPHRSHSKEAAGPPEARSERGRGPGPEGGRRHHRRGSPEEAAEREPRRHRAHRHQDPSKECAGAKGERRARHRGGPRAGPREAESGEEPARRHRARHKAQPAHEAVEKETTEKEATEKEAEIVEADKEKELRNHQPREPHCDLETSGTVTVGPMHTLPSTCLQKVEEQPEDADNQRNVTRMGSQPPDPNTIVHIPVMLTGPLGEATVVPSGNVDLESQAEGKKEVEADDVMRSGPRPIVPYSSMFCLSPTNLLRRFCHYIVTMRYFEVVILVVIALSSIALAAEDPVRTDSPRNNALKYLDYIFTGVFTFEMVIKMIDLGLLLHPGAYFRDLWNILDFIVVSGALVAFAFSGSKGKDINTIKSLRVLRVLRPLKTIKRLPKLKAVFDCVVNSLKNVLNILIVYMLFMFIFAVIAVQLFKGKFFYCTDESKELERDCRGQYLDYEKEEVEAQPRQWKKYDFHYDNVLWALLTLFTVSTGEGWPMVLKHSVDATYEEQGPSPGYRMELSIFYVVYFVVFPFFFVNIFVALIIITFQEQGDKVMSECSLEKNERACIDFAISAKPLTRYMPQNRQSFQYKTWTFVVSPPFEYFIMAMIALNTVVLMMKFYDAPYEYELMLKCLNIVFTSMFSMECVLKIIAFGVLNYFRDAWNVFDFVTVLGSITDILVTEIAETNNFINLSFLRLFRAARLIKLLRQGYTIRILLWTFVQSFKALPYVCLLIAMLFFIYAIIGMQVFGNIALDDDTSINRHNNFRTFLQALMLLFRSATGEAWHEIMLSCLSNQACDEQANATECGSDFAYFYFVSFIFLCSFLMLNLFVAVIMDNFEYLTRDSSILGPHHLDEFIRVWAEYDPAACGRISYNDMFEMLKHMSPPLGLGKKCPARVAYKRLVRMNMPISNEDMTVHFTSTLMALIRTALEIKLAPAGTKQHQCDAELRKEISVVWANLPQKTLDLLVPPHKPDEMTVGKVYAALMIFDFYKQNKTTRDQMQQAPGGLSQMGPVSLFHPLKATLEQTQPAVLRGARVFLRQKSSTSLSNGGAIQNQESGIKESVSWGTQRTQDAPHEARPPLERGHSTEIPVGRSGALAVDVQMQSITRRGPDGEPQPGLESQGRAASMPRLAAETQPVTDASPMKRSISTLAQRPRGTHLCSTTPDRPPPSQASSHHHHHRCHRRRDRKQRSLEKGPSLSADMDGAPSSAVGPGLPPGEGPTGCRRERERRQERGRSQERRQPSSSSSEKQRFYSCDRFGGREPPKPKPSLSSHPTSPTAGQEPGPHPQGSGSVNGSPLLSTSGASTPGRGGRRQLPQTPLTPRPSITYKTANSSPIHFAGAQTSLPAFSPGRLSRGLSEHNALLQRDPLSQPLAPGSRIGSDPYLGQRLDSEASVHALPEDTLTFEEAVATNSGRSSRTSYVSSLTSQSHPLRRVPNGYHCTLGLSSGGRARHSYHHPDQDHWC
T5 sequence (Q02410 whole entry): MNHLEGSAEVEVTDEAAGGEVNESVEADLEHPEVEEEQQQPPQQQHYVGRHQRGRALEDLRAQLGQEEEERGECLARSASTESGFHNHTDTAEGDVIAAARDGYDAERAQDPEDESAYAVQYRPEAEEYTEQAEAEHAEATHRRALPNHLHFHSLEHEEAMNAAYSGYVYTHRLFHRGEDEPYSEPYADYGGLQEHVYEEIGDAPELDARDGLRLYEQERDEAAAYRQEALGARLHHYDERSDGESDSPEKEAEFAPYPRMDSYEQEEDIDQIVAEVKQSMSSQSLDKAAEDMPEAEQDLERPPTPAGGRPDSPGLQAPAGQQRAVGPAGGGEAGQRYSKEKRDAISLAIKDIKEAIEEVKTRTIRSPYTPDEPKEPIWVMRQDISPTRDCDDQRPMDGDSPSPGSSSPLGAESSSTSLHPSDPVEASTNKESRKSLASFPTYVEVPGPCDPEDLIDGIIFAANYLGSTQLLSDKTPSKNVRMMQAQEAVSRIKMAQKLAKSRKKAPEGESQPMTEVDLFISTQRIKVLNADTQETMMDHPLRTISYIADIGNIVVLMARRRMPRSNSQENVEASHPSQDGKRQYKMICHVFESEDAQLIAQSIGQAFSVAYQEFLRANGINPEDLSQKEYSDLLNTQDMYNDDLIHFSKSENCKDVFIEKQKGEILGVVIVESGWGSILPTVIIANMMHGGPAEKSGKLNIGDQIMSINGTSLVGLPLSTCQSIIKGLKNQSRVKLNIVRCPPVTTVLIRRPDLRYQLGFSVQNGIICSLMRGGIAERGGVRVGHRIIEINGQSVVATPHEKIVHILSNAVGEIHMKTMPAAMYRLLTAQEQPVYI
Sequence of Cytochrome P450 2D6 (P10635 whole entry): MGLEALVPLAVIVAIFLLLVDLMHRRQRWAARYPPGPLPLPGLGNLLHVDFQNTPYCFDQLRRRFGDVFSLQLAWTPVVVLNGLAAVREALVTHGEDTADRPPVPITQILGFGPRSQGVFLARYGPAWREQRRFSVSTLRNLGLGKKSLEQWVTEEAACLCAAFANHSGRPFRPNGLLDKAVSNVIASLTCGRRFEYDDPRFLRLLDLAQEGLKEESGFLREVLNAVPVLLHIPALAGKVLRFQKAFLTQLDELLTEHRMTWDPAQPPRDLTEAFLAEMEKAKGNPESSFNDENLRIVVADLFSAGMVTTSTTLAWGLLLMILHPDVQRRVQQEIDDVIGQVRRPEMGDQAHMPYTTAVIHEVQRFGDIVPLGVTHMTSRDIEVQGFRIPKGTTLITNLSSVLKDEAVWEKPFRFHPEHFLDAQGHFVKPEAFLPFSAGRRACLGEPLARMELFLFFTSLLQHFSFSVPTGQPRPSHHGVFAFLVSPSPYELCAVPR

CCOc1cc(/C=C2\SC(=S)N(C(C(=O)O)c3ccccc3)C2=O)ccc1O (configuration not stated)
IC50 (Leucine aminopeptidase): 45.5 µM (active)
IC50 (Aminopeptidase N): 31.8 µM (active)
IC50 [1]: 23.2 µM (inactive)
EC50 (Beta-galactosidase [2]): 14.3 µM (active)
IC50 [3]: > 32 µM

CCOc1ccc(N2C(=O)CC(Sc3nnnn3-c3ccccc3)C2=O)cc1 (configuration not stated)
IC50 [4]: 13.4 µM (active)
IC50 [5]: 3.74 µM (active)
IC50 (Beta-galactosidase [6]): > 66.6 µM (inactive)
AC50 [7]: 11.5 µM (active)
AC50 [8]: 40.3 µM (active)
AC50 [9]: 12.1 µM (active)

CCOC(=O)c1c(-c2ccc(C)o2)csc1NC(=S)NC(=O)N(C)C
EC50 [10]: 3.01 µM (active)
IC50 (Beta-galactosidase [6]): > 66.6 µM (inactive)
AC50 (Cytochrome P450 2D6): inconclusive

CC1Cn2c(nnc2C23CC4CC(CC(C4)C2)C3)S1 (configuration not stated)
IC50 [11]: > 100 µM (inactive)

O=C(N/N=C/c1ccc([N+](=O)[O-])o1)C1CCCCC1
AC50 [12]: 21.5 µM (active)
AC50 (Trypanosoma cruzi): 0.501 µM (active)

C(=N\Nc1nncc2ccccc12)/c1ccccn1
EC50 (BJ [13]): 8.71 µM (inconclusive)
EC50 (BJ [14]): 10.8 µM (inconclusive)
EC50 (BJ [15]): 4.42 µM (active)
EC50 [16]: 5.08 µM (inconclusive)
IC50 (Nonstructural protein 1): 4.45 µM (active)
CC50 [17]: 6.58 µM (active)
AC50 [18]: 3.19 µM (active)
EC50 (BJ [19]): 3.77 µM (active)
EC50 (Protein RecA): 1.29 µM (active)
AC50 (INS1): 1.58 µM (active)
AC50 [20]: 0.478 µM (active)
AC50 [21]: 4.9 µM (active)
AC50 [22]: < 0.26 µM (active)
AC50 [23]: 4.38 µM (active)
AC50 [24]: 4.65 µM (active)
